# Experiments:
# [1] = Pharmacokinetics and tissue distribution (lung, plasma, heart, kidney) of co-solvent formulations, intratracheal bolus aerosol; assay type: in vivo, Sprague-Dawley rats; conditions: pirfenidone about 4 mg/kg IT aerosol
# Procedure: Selected formulations were prepared for pharmacokinetic analysis following aerosol delivery to rat lung. […] Formulations prepared for this study are outlined in Table 9. […] The sample was agitated until completely dissolved. […] Filtered samples were analyzed by HPLC.
# elastase = conditions: unprocessed CF sputum directly treated; cited from earlier work
# [2] = primary metabolite; cited from earlier work
# cancer patients = conditions: cited from earlier work
# [3] = system: relapsed/refractory multiple myeloma; conditions: cited from earlier work
# [4] = system: EGFR mutation positive patients; conditions: cited from earlier work
# PI3K = conditions: cited from earlier work
# mTOR = mTOR (Homo sapiens, UniProt P42345); conditions: cited from earlier work
# breast cancer stem cells = conditions: mice; cited from earlier work
# p110-γ and p110-δ = conditions: inhibits all four isoforms; cited from earlier work
molecule,measurement,setting,value
O=C(O)c1ccc(=O)n(-c2ccccc2)c1,"5-carboxy metabolite, lung tissue, Mean",[1]; 0 MIN (one value for all groups),0.00 μg/gram
same,"5-carboxy metabolite, lung tissue, Mean","[1]; Group 1, 0.0333 hr",0.12 μg/gram
same,"5-carboxy metabolite, lung tissue, Mean","[1]; Group 1, 0.0667 hr",0.13 μg/gram
same,"5-carboxy metabolite, lung tissue, Mean","[1]; Group 1, 0.100 hr",0.48 μg/gram
same,"5-carboxy metabolite, lung tissue, Mean","[1]; Group 1, 0.167 hr",0.49 μg/gram
same,"5-carboxy metabolite, lung tissue, Mean","[1]; Group 1, 0.333 hr",0.96 μg/gram
same,"5-carboxy metabolite, lung tissue, Mean","[1]; Group 1, 0.667 hr",0.96 μg/gram
same,"5-carboxy metabolite, lung tissue, Mean","[1]; Group 1, 1 hr",0.73 μg/gram
same,"5-carboxy metabolite, lung tissue, Mean","[1]; Group 1, 2 hr",0.21 μg/gram
same,"5-carboxy metabolite, lung tissue, Mean","[1]; Group 1, 2.50 hr",0.10 μg/gram
same,"5-carboxy metabolite, lung tissue, Mean","[1]; Group 1, […]",0.48 μg/gram
same,"5-carboxy metabolite, lung tissue, Mean","[1]; Group 3, 0.0333 hr",0.05 μg/gram
same,"5-carboxy metabolite, lung tissue, Mean","[1]; Group 3, 0.0667 hr",0.36 μg/gram
same,"5-carboxy metabolite, lung tissue, Mean","[1]; Group 3, 0.100 hr",0.55 μg/gram
same,"5-carboxy metabolite, lung tissue, Mean","[1]; Group 3, 0.167 hr",0.86 μg/gram
same,"5-carboxy metabolite, lung tissue, Mean","[1]; Group 3, 0.333 hr",1.09 μg/gram
same,"5-carboxy metabolite, lung tissue, Mean","[1]; Group 3, 0.667 hr",0.81 μg/gram
same,"5-carboxy metabolite, lung tissue, Mean","[1]; Group 3, 1 hr",0.70 μg/gram
same,"5-carboxy metabolite, lung tissue, Mean","[1]; Group 3, 2 hr",0.32 μg/gram
same,"5-carboxy metabolite, lung tissue, Mean","[1]; Group 3, 2.50 hr",0.14 μg/gram
same,"5-carboxy metabolite, lung tissue, Mean","[1]; Group 3, […]",0.52 μg/gram
same,"5-carboxy metabolite, lung tissue, Mean","[1]; Group 5, 0.0333 hr",0.17 μg/gram
same,"5-carboxy metabolite, lung tissue, Mean","[1]; Group 5, 0.0667 hr",0.42 μg/gram
same,"5-carboxy metabolite, lung tissue, Mean","[1]; Group 5, 0.100 hr",0.35 μg/gram
same,"5-carboxy metabolite, lung tissue, Mean","[1]; Group 5, 0.167 hr",0.53 μg/gram
same,"5-carboxy metabolite, lung tissue, Mean","[1]; Group 5, 0.333 hr",1.32 μg/gram
same,"5-carboxy metabolite, lung tissue, Mean","[1]; Group 5, 0.667 hr",0.96 μg/gram
same,"5-carboxy metabolite, lung tissue, Mean","[1]; Group 5, 1 hr",0.75 μg/gram
same,"5-carboxy metabolite, lung tissue, Mean","[1]; Group 5, 2 hr",0.18 μg/gram
same,"5-carboxy metabolite, lung tissue, Mean","[1]; Group 5, 2.50 hr",0.10 μg/gram
same,"5-carboxy metabolite, lung tissue, Mean","[1]; Group 5, […]",0.45 μg/gram
same,"5-carboxy metabolite, lung tissue, Mean","[1]; Group 6, 0.0333 hr",0.17 μg/gram
same,"5-carboxy metabolite, lung tissue, Mean","[1]; Group 6, 0.0667 hr",0.43 μg/gram
same,"5-carboxy metabolite, lung tissue, Mean","[1]; Group 6, 0.100 hr",0.37 μg/gram
same,"5-carboxy metabolite, lung tissue, Mean","[1]; Group 6, 0.167 hr",0.64 μg/gram
same,"5-carboxy metabolite, lung tissue, Mean","[1]; Group 6, 0.333 hr",0.94 μg/gram
same,"5-carboxy metabolite, lung tissue, Mean","[1]; Group 6, 0.667 hr",0.92 μg/gram
same,"5-carboxy metabolite, lung tissue, Mean","[1]; Group 6, 1 hr",0.78 μg/gram
same,"5-carboxy metabolite, lung tissue, Mean","[1]; Group 6, 2 hr",0.24 μg/gram
same,"5-carboxy metabolite, lung tissue, Mean","[1]; Group 6, 2.50 hr",0.14 μg/gram
same,"5-carboxy metabolite, lung tissue, Mean","[1]; Group 6, […]",0.43 μg/gram
"O=C(O)CCCC[C@@H](S)CCS (racemic) [DHLA, dihydrolipoic acid]",increase of sol elastase activity,elastase,did not increase elastase activity
O=C(O)c1ccc(=O)n(-c2ccccc2)c1 [5-carboxy-pirfenidone],share of urinary excretion,[2],95%
N#CC1(c2ccc(NC(=O)c3cccnc3NCc3ccncc3)cc2)CCCC1 [Apatinib],complete response,"cancer patients; 65 cancer patients, Phase I/II",1.54%
same,partial response,"cancer patients; 65 cancer patients, Phase I/II",12.31%
same,progressive disease,"cancer patients; 65 cancer patients, Phase I/II",20%
same,stable disease,"cancer patients; 65 cancer patients, Phase I/II",66.15%
same,maximum tolerated dose,cancer patients; daily for 28 days,850 mg/day
CC(C)C[C@H](NC(=O)[C@H](Cc1ccccc1)NC(=O)c1cnccn1)B(O)O [Bortezomib],patients with peripheral neuropathy,"[3]; human, in vivo",30%
same,time to peak concentrations,[3]; intravenous administration,about 30 minutes
C#Cc1cccc(Nc2ncnc3cc(OCCOC)c(OCCOC)cc23)c1 [Erlotinib],response rate,[4],approximately 60%
Cc1c(CN2CCN(S(C)(=O)=O)CC2)sc2c(N3CCOCC3)nc(-c3cnc(N)nc3)nc12 [GNE-477],IC50,mTOR,21 nM
CC[C@@H](C(=O)[C@@H](C)[C@@H](O)[C@H](C)[C@@H]1O[C@@H]([C@@H](CC)C(=O)O)CC[C@@H]1C)[C@H]1O[C@]2(C=C[C@@H](O)[C@]3(CC[C@@](C)([C@H]4CC[C@](O)(CC)[C@H](C)O4)O3)O2)[C@H](C)C[C@@H]1C [Salinomycin],"killing of breast cancer stem cells, times more effectively than paclitaxel",breast cancer stem cells,at least 100 times
Nc1nc(N)c2nc(-c3cccc(O)c3)c(-c3cccc(O)c3)nc2n1 [TG100-115],fold better potency against p110-γ and p110-δ,p110-γ and p110-δ,5-10 fold
DNase,increase of sol elastase activity,elastase,190%
"reduced rhTrx: stable reduced form of recombinant human thioredoxin (protein, UniProt P10599 2-105, looked up, reduced form) Thioredoxin: VKQIESKTAFQEALDAAGDKLVVVDFSATWCGPCKMIKPFFHSLSEKYSNVIFLEVDVDDCQDVASECEVKCMPTFQFFKKGQKVGEFSGANKEKLEATINELV",increase of sol elastase activity,elastase,60%
